Biological target: His6-TEV-PDGFRβ (557-1016) (Homo sapiens (Human), UniProt P09619)
Experiment: PDGFRβ HTRF Assay
Assay type: biochemical
Conditions: read-out: PDGFR HTRF IC50
In short: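 Human PDGFRβ (557-1016) pre-incubated with compound for 30 min at RT in pH 7.5 HEPES/MgCl2/EGTA/Brij-35/DTT buffer. Reaction started with ATP and TK-biotin peptide, run 3 h at RT, then quenched with EDTA-containing Eu-cryptate antibody/streptavidin-XL665. HTRF 665/620 nm ratio read after 60 min; percent inhibition relative to DMSO and 10 μM imatinib controls.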

His6-TEV-PDGFRβ (557-1016), sequence (P09619 557-1016): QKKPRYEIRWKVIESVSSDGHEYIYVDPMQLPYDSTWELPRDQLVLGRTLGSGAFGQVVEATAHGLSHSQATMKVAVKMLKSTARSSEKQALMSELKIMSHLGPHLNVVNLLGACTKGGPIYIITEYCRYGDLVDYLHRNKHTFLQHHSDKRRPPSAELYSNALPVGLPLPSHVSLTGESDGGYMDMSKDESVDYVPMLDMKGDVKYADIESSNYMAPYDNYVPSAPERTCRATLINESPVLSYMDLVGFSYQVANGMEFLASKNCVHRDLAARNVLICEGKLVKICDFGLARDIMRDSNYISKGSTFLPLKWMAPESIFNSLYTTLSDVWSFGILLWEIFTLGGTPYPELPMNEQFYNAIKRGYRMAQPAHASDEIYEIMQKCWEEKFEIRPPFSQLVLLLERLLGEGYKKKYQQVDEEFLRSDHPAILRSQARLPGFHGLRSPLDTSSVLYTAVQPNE

Row | Structure (SMILES) | IC50
1 | COCCn1cc(-c2cn3ncc(C(=O)Nc4cc(NC(=O)CCN5CC6CCC5CC6)cnc4C)c3s2)cn1 [Example 100, N-(5-(3-(2-azabicyclo[2.2.2]octan-2-yl)propanamido)-2-methylpyridin-3-yl)-2-(1-(2-methoxyethyl)-1H-pyrazol-4-yl)pyrazolo[5,1-b]thiazole-7-carboxamide] | 0.5 nM
2 | Cc1ncc(C(=O)NCCN2CCC3(CCC3)C2)cc1NC(=O)c1cnn2cc(-c3cnn(C)c3)sc12 [Example 113, N-(5-((2-(6-azaspiro[3.4]octan-6-yl)ethyl)carbamoyl)-2-methylpyridin-3-yl)-2-(1-methyl-1H-pyrazol-4-yl)pyrazolo[5,1-b]thiazole-7-carboxamide] | < 0.1 nM
3 | Cc1ncc(C(=O)NCCN2CCCC2(C)C)cc1NC(=O)c1cnn2cc(-c3ccc(=O)[nH]n3)sc12 [Example 141, N-(5-((2-(2,2-dimethylpyrrolidin-1-yl)ethyl)carbamoyl)-2-methylpyridin-3-yl)-2-(6-oxo-1,6-dihydropyridazin-3-yl)pyrazolo[5,1-b]thiazole-7-carboxamide] | 1.8 nM
4 | Cc1ncc(C(=O)NCCN2CC3COCC3C2)cc1NC(=O)c1cnn2cc(-c3cnn(C)c3)sc12 (stereo not drawn) [Example 112, 2-(1-methyl-1H-pyrazol-4-yl)-N-(2-methyl-5-((2-(tetrahydro-1H-furo[3,4-c]pyrrol-5 (3H)-yl)ethyl)carbamoyl)pyridin-3-yl)pyrazolo[5,1-b]thiazole-7-carboxamide] | 0.5 nM
5 | Cc1ncc(C(=O)NCCN2CCCC(F)(F)C2)cc1NC(=O)c1cnn2cc(-c3cnn(C)c3)sc12 [Example 123, N-(5-((2-(3,3-difluoropiperidin-1-yl)ethyl)carbamoyl)-2-methylpyridin-3-yl)-2-(1-methyl-1H-pyrazol-4-yl)pyrazolo[5,1-b]thiazole-7-carboxamide] | 0.3 nM
6 | Cc1ncc(C(=O)NCCN2CCC(F)(F)CC2)cc1NC(=O)c1cnn2cc(-c3cnn(C)c3)sc12 [Example 119, N-(5-((2-(4,4-difluoropiperidin-1-yl)ethyl)carbamoyl)-2-methylpyridin-3-yl)-2-(1-methyl-1H-pyrazol-4-yl)pyrazolo[5,1-b]thiazole-7-carboxamide] | 0.3 nM
7 | COCCn1cc(-c2cn3ncc(C(=O)Nc4cc(C(=O)NCCN5CC6(CCC6)C5)cnc4C)c3s2)cn1 [Example 168, N-(5-((2-(2-azaspiro[3.3]heptan-2-yl)ethyl)carbamoyl)-2-methylpyridin-3-yl)-2-(1-(2-methoxyethyl)-1H-pyrazol-4-yl)pyrazolo[5,1-b]thiazole-7-carboxamide] | 0.6 nM
8 | Cc1ncc(C(=O)NCCN2CC3CCC2CC3)cc1NC(=O)c1cnn2cc(-c3cn(C)nc3C)sc12 [Example 178, N-(5-((2-(2-azabicyclo[2.2.2]octan-2-yl)ethyl)carbamoyl)-2-methylpyridin-3-yl)-2-(1,3-dimethyl-1H-pyrazol-4-yl)pyrazolo[5,1-b]thiazole-7-carboxamide] | 0.2 nM
9 | COCCn1cc(-c2cn3ncc(C(=O)Nc4cc(C(=O)NCCN5CCC(F)(F)C5)cnc4C)c3s2)cn1 [Example 167, N-(5-((2-(3,3-difluoropyrrolidin-1-yl)ethyl)carbamoyl)-2-methylpyridin-3-yl)-2-(1-(2-methoxyethyl)-1H-pyrazol-4-yl)pyrazolo[5,1-b]thiazole-7-carboxamide] | 0.5 nM
10 | Cc1ncc(C(=O)NCCN2CCC(F)(F)CC2)cc1NC(=O)c1cnn2cc(-c3ccncc3)sc12 [Example 154, N-(5-((2-(4,4-difluoropiperidin-1-yl)ethyl)carbamoyl)-2-methylpyridin-3-yl)-2-(pyridin-4-yl)pyrazolo[5,1-b]thiazole-7-carboxamide] | 0.3 nM
11 | Cc1ncc(C(=O)NCCN2CC3CCC2CC3)cc1NC(=O)c1cnn2cc(-c3ccncc3)sc12 [Example 148, N-(5-((2-(2-azabicyclo[2.2.2]octan-2-yl)ethyl)carbamoyl)-2-methylpyridin-3-yl)-2-(pyridin-4-yl)pyrazolo[5,1-b]thiazole-7-carboxamide] | 0.3 nM
12 | Cc1ncc(NC(=O)CCN2CCC3(CC3)C2)cc1NC(=O)c1cnn2cc(-c3cnn(C)c3)sc12 [Example 104, N-(5-(3-(5-azaspiro[2.4]heptan-5-yl)propanamido)-2-methylpyridin-3-yl)-2-(1-methyl-1H-pyrazol-4-yl)pyrazolo[5,1-b]thiazole-7-carboxamide] | 0.4 nM
13 | CC(=O)Nc1ccnc(-c2cn3ncc(C(=O)Nc4cc(C(=O)NCCN5CC6CCC5CC6)cnc4C)c3s2)c1 [Example 146, N-(5-((2-(2-azabicyclo[2.2.2]octan-2-yl)ethyl)carbamoyl)-2-methylpyridin-3-yl)-2-(4-acetamidopyridin-2-yl)pyrazolo[5,1-b]thiazole-7-carboxamide] | 0.6 nM
14 | Cc1ncc(NC(=O)CCN2CCCC2(C)C)cc1NC(=O)c1cnn2cc(-c3cnn(C)c3)sc12 [Example 10, N-(5-(3-(2,2-dimethylpyrrolidin-1-yl)propanamido)-2-methyl-pyridin-3-yl)-2-(1-methyl-1H-pyrazol-4-yl)pyrazolo[5,1-b]thiazole-7-carboxamide] | 0.3 nM
15 | Cc1ncc(C(=O)NCCN2CCC3(CC3)C2)cc1NC(=O)c1cnn2cc(-c3cnn(C)c3C)sc12 [Example 170, N-(5-((2-(5-azaspiro[2.4]heptan-5-yl)ethyl)carbamoyl)-2-methylpyridin-3-yl)-2-(1,5-dimethyl-1H-pyrazol-4-yl)pyrazolo[5,1-b]thiazole-7-carboxamide] | 0.3 nM
16 | Cc1ncc(C(=O)NCCN2CCC3(CCOC3)C2)cc1NC(=O)c1cnn2cc(-c3cnn(C)c3)sc12 (stereo not drawn) [Example 116, N-(5-((2-(2-oxa-7-azaspiro[4.4]nonan-7-yl)ethyl)carbamoyl)-2-methylpyridin-3-yl)-2-(1-methyl-1H-pyrazol-4-yl)pyrazolo[5,1-b]thiazole-7-carboxamide] | 0.5 nM
17 | Cc1ncc(C(=O)NCCN2CCCC23COC3)cc1NC(=O)c1cnn2cc(-c3cn(C)nc3C)sc12 [Example 176, N-(5-((2-(2-oxa-5-azaspiro[3.4]octan-5-yl)ethyl)carbamoyl)-2-methylpyridin-3-yl)-2-(1,3-dimethyl-1H-pyrazol-4-yl)pyrazolo[5,1-b]thiazole-7-carboxamide] | 0.5 nM
18 | Cc1ncc(C(=O)NCCN2CCC3(CC3)C2)cc1NC(=O)c1cnn2cc(-c3cnn(C)c3)sc12 [Example 118, N-(5-((2-(5-azaspiro[2.4]heptan-5-yl)ethyl)carbamoyl)-2-methylpyridin-3-yl)-2-(1-methyl-1H-pyrazol-4-yl)pyrazolo[5,1-b]thiazole-7-carboxamide] | 0.3 nM
19 | Cc1ncc(C(=O)NCCN2CCC3(CC3)C2)cc1NC(=O)c1cnn2cc(-c3ccccn3)sc12 [Example 160, N-(5-((2-(5-azaspiro[2.4]heptan-5-yl)ethyl)carbamoyl)-2-methylpyridin-3-yl)-2-(pyridin-2-yl)pyrazolo[5,1-b]thiazole-7-carboxamide] | 0.2 nM
20 | Cc1ncc(C(=O)NCCN2CC3CCC2CC3)cc1NC(=O)c1cnn2cc(-c3ccc4oc(=O)[nH]c4c3)sc12 [Example 145, N-(5-((2-(2-azabicyclo[2.2.2]octan-2-yl)ethyl)carbamoyl)-2-methylpyridin-3-yl)-2-(2-oxo-2,3-dihydrobenzo[d]oxazol-5-yl)pyrazolo[5,1-b]thiazole-7-carboxamide] | 0.2 nM
21 | Cc1ncc(C(=O)NCCN2CC3CCC2CC3)cc1NC(=O)c1cnn2cc(-c3cnn(CC(N)=O)c3)sc12 [Example 150, N-(5-((2-(2-azabicyclo[2.2.2]octan-2-yl)ethyl)carbamoyl)-2-methylpyridin-3-yl)-2-(1-(2-amino-2-oxoethyl)-1H-pyrazol-4-yl)pyrazolo[5,1-b]thiazole-7-carboxamide] | 0.6 nM
22 | Cc1ncc(C(=O)NCCN2CC(F)(F)C2)cc1NC(=O)c1cnn2cc(-c3ccncc3)sc12 [Example 152, N-(5-((2-(3,3-difluoroazetidin-1-yl)ethyl)carbamoyl)-2-methylpyridin-3-yl)-2-(pyridin-4-yl)pyrazolo[5,1-b]thiazole-7-carboxamide] | 0.4 nM
23 | Cc1ncc(C(=O)NCCN2CCC23CCC3)cc1NC(=O)c1cnn2cc(-c3cn(C)nc3C)sc12 [Example 175, N-(5-((2-(1-azaspiro[3.3]heptan-1-yl)ethyl)carbamoyl)-2-methylpyridin-3-yl)-2-(1,3-dimethyl-1H-pyrazol-4-yl)pyrazolo[5,1-b]thiazole-7-carboxamide] | 0.5 nM
24 | CC(=O)Nc1cncc(-c2cn3ncc(C(=O)Nc4cc(C(=O)NCCN5CC6CCC5CC6)cnc4C)c3s2)c1 [Example 147, N-(5-((2-(2-azabicyclo[2.2.2]octan-2-yl)ethyl)carbamoyl)-2-methylpyridin-3-yl)-2-(5-acetamidopyridin-3-yl)pyrazolo[5,1-b]thiazole-7-carboxamide] | 0.8 nM
25 | Cc1ncc(C(=O)NCCN2CC3CC(C3)C2)cc1NC(=O)c1cnn2cc(-c3cnn(C)c3)sc12 [Example 5, N-(5-((2-(3-azabicyclo[3.1.1]heptan-3-yl)ethyl)carbamoyl)-2-methylpyridin-3-yl)-2-(1-methyl-1H-pyrazol-4-yl)pyrazolo[5,1-b]thiazole-7-carboxamide] | 0.4 nM
26 | Cc1ncc(C(=O)NCCN2CC3CCC2CC3)cc1NC(=O)c1cnn2cc(-c3cnn(C4COC4)c3)sc12 [Example 144, N-(5-((2-(2-azabicyclo[2.2.2]octan-2-yl)ethyl)carbamoyl)-2-methylpyridin-3-yl)-2-(1-(oxetan-3-yl)-1H-pyrazol-4-yl)pyrazolo[5,1-b]thiazole-7-carboxamide] | 0.3 nM
27 | Cc1ncc(C(=O)NCCN2CC(F)(F)C2)cc1NC(=O)c1cnn2cc(-c3cnn(C)c3)sc12 [Example 125, N-(5-((2-(3,3-difluoroazetidin-1-yl)ethyl)carbamoyl)-2-methylpyridin-3-yl)-2-(1-methyl-1H-pyrazol-4-yl)pyrazolo[5,1-b]thiazole-7-carboxamide] | 0.3 nM

Reference: patent publication US20240109917A1 (ACTELION PHARMACEUTICALS LTD, priority 2020, published 2024)
